Measurements from ChEMBL document CHEMBL1124311, “Synthesis and antiallergy activity of 4-(diarylhydroxymethyl)-1-[3-(aryloxy)propyl]piperidines and structurally related compounds” (J Med Chem, 1989).

Columns and labels:
Type in all cases: functional, organism-based
Rattus norvegicus [1] = assay: Oral antiallergy activity in the passive foot anaphylaxis (PFA) model of rat, at a dose of 10 (mg/kg); Activity equal to positive control group
Rattus norvegicus [2] = assay: Oral antiallergy activity in the passive foot anaphylaxis (PFA) model of rat, at a dose of 10 (mg/kg); not significantly different from negative control group
Rattus norvegicus [3] = assay: Oral antiallergy activity in the passive foot anaphylaxis (PFA) model of rat, at a dose of 10 (mg/kg); Activity between positive and negative control groups
Rattus norvegicus [4] = assay: Oral antiallergy activity in the passive foot anaphylaxis (PFA) model of rat, at a dose of 3.16 (mg/kg); not significantly different from negative control group
Rattus norvegicus [5] = assay: Oral antiallergy activity in the passive foot anaphylaxis (PFA) model of rat, at a dose of 3.16 (mg/kg); Activity between positive and negative control groups

SMILES	PFA (Rattus norvegicus [2])	PFA (Rattus norvegicus [3])	other results
COc1cc(C(C)=O)ccc1OCCCN1CCC(C(c2ccccc2)c2ccccc2)CC1	–	–	PFA (Rattus norvegicus [1]): Activity equal to positive control group
COC(=O)c1ccc(OCCCN2CCC(C(O)(c3ccccc3)c3ccccc3)CC2)cc1	Not significantly different from negative control group	–	–
CCN(CCCOc1ccc(C(C)=O)cc1OC)CCCC(O)(c1ccc(F)cc1)c1ccc(F)cc1	Not significantly different from negative control group	–	–
COc1cc(C(C)=O)ccc1OCCCN1CCCC(C(O)(c2ccc(F)cc2)c2ccc(F)cc2)C1 (configuration not stated)	Not significantly different from negative control group	–	–
OC(c1ccc(F)cc1)(c1ccc(F)cc1)C1CCN(CCCOc2ccccc2OCc2ccccc2)CC1	–	Activity between positive and negative control groups	–
COc1cc(C(C)=O)ccc1OCCCN1CCCCC1	Not significantly different from negative control group	–	–
O=C(c1ccccc1)c1ccc(OCCCN2CCC(C(O)(c3ccc(F)cc3)c3ccc(F)cc3)CC2)cc1	–	Activity between positive and negative control groups	PFA (Rattus norvegicus [4]): Activity between positive and negative control groups
COc1cc(C(C)=O)ccc1OCCCN1CCC(C(O)(c2ccccc2)C2CCCCC2)CC1 (configuration not stated)	Not significantly different from negative control group	–	–
COc1cc(C(C)=O)ccc1OCCCN1CCC(C(OC)(c2ccccc2)c2ccccc2)CC1	–	–	PFA (Rattus norvegicus [5]): Activity between positive and negative control groups
CN(CCCN1CCC(C(O)(c2ccc(F)cc2)c2ccc(F)cc2)CC1)c1ccccc1	–	Activity between positive and negative control groups	PFA (Rattus norvegicus [5]): Activity between positive and negative control groups
CCOC(=O)c1cccc(OCCCN2CCC(C(O)(c3ccc(F)cc3)c3ccc(F)cc3)CC2)c1	–	Activity between positive and negative control groups	PFA (Rattus norvegicus [4]): Activity between positive and negative control groups
O=S(=O)(CCCN1CCC(C(O)(c2ccc(F)cc2)c2ccc(F)cc2)CC1)c1ccccc1	Not significantly different from negative control group	–	–
CCOC(=O)C(=O)Nc1ccc(OCCCN2CCC(C(O)(c3ccc(F)cc3)c3ccc(F)cc3)CC2)cc1	Not significantly different from negative control group	–	–
COc1cc(C(C)=O)ccc1OCCCN1CCC(C(C(N)=O)(c2ccccc2)c2ccccc2)CC1	Not significantly different from negative control group	–	–
COc1cccc(OCCCN2CCC(C(O)(c3ccc(F)cc3)c3ccc(F)cc3)CC2)c1	–	Activity between positive and negative control groups	PFA (Rattus norvegicus [4]): Activity between positive and negative control groups
COc1cccc(OC)c1OCCCN1CCC(C(O)(c2ccc(F)cc2)c2ccc(F)cc2)CC1	–	Activity between positive and negative control groups	PFA (Rattus norvegicus [4]): Activity between positive and negative control groups
COc1ccc(C(O)(c2ccc(OC)cc2)C2CCN(CCCOc3ccc(C(C)=O)cc3OC)CC2)cc1	Not significantly different from negative control group	–	–
COc1cc(C(C)=O)ccc1OCCCN1CCN(Cc2ccccc2)CC1	Not significantly different from negative control group	–	–
COc1cc(C(C)=O)ccc1OCCCN1CCC(C(O)(c2ccc(F)cc2)c2ccccn2)CC1 (configuration not stated)	–	–	PFA (Rattus norvegicus [5]): Activity between positive and negative control groups
COc1cc(C(C)=O)ccc1OCCN1CCC(C(O)(c2ccc(F)cc2)c2ccc(F)cc2)CC1	–	–	PFA (Rattus norvegicus [1]): Activity equal to positive control group

SMILES	PFA (Rattus norvegicus [2])	PFA (Rattus norvegicus [3])	other results
CC(=O)c1cccc(OCCCN2CCC(C(O)(c3ccc(F)cc3)c3ccc(F)cc3)CC2)c1	–	Activity between positive and negative control groups	PFA (Rattus norvegicus [4]): Activity between positive and negative control groups
NS(=O)(=O)c1ccc(OCCCN2CCC(C(O)(c3ccc(F)cc3)c3ccc(F)cc3)CC2)cc1	–	Activity between positive and negative control groups	PFA (Rattus norvegicus [4]): Activity between positive and negative control groups
COc1cc(C(C)=O)ccc1OCCCN1CCC(CC(O)(c2ccc(F)cc2)c2ccc(F)cc2)CC1	Not significantly different from negative control group	–	–
OC(c1ccc(F)cc1)(c1ccc(F)cc1)C1CCN(CCCOc2ccc(-c3ccccc3)cc2)CC1	Not significantly different from negative control group	–	–
OC(CCCN1CCC(C(O)(c2ccc(F)cc2)c2ccc(F)cc2)CC1)c1ccccc1 (configuration not stated)	–	Activity between positive and negative control groups	PFA (Rattus norvegicus [5]): Activity between positive and negative control groups
COc1cc(C(C)=O)ccc1OCCCN1CCC(C(O)(c2cccc(F)c2)c2cccc(F)c2)CC1	Not significantly different from negative control group	–	–
COc1cc(C(C)=O)ccc1OCCCCCN1CCC(C(O)(c2ccc(F)cc2)c2ccc(F)cc2)CC1	–	Activity between positive and negative control groups	PFA (Rattus norvegicus [5]): Activity between positive and negative control groups
COc1cc(OCCCN2CCC(C(O)(c3ccc(F)cc3)c3ccc(F)cc3)CC2)ccc1C(C)=O	–	Activity between positive and negative control groups	–
OC(c1ccccc1)(c1ccccc1)C1CCN(CCCOc2ccccc2)CC1	–	–	PFA (Rattus norvegicus [1]): Activity equal to positive control group
COc1cc(C(C)=O)ccc1OCCCN1CCC(CC(O)(c2ccc(F)cc2)c2ccc(F)cc2)C1 (configuration not stated)	Not significantly different from negative control group	–	–
OC(c1ccc(F)cc1)(c1ccc(F)cc1)C1CCN(CCCSc2ccccc2)CC1	–	Activity between positive and negative control groups	–
CC(=O)c1ccccc1OCCCN1CCC(C(O)(c2ccc(F)cc2)c2ccc(F)cc2)CC1	–	Activity between positive and negative control groups	PFA (Rattus norvegicus [4]): Activity between positive and negative control groups
COc1cc(C(C)=O)ccc1OCCCN1CCC(C(O)(c2ccccc2)c2cccc(C(F)(F)F)c2)CC1 (configuration not stated)	Not significantly different from negative control group	–	–
Cc1ccccc1OCCCN1CCC(C(O)(c2ccc(F)cc2)c2ccc(F)cc2)CC1	–	Activity between positive and negative control groups	–
OC(c1ccc(F)cc1)(c1ccc(F)cc1)C1CCN(CCCOc2ccc(F)cc2)CC1	Not significantly different from negative control group	–	–
COc1cc(C(C)=O)ccc1OCCCN1CCC(C(C#N)(c2ccccc2)c2ccccc2)CC1	Not significantly different from negative control group	–	–
COc1cc(C(C)=O)ccc1OCCCN1CCC(C(O)(c2ccc(Cl)cc2)c2ccc(Cl)cc2)CC1	Not significantly different from negative control group	–	–
COc1cc(C(C)=O)ccc1OCCCN1CCC(c2ccccc2)CC1	Not significantly different from negative control group	–	–
COC(=O)c1ccc(OCCCCN2CCC(C(O)(c3ccc(F)cc3)c3ccc(F)cc3)CC2)cc1	–	Activity between positive and negative control groups	PFA (Rattus norvegicus [4]): Activity between positive and negative control groups
N#Cc1ccc(OCCCN2CCC(C(O)(c3ccc(F)cc3)c3ccc(F)cc3)CC2)cc1	Not significantly different from negative control group	–	–

SMILES	PFA (Rattus norvegicus [2])	PFA (Rattus norvegicus [3])	other results
C[S+]([O-])c1ccc(OCCCN2CCC(C(O)(c3ccc(F)cc3)c3ccc(F)cc3)CC2)cc1 (configuration not stated)	–	Activity between positive and negative control groups	PFA (Rattus norvegicus [4]): Activity between positive and negative control groups
COc1cc(C(C)=O)ccc1OCCCN1CCC(C(O)(c2ccc(F)c(F)c2)c2ccc(F)c(F)c2)CC1	Not significantly different from negative control group	–	–
COc1cc(C(C)=O)ccc1OCCCN1CCN(C(c2ccccc2)c2ccccc2)CC1	–	–	PFA (Rattus norvegicus [1]): Activity equal to positive control group
COc1cc(C(C)=O)ccc1OCCCN1CCC(C(=O)c2ccccc2)CC1	–	–	PFA (Rattus norvegicus [1]): Activity equal to positive control group
O=C(CCCN1CCC(C(O)(c2ccc(F)cc2)c2ccc(F)cc2)CC1)c1ccccc1	Not significantly different from negative control group	–	–
COc1cc(C(C)=O)ccc1OCCCN1CCN(C(=O)c2ccccc2)CC1	Not significantly different from negative control group	–	–
CC(C)c1ccc(OCCCN2CCC(C(O)(c3ccc(F)cc3)c3ccc(F)cc3)CC2)cc1	–	Activity between positive and negative control groups	PFA (Rattus norvegicus [4]): Activity between positive and negative control groups
OC(c1ccc(F)cc1)(c1ccc(F)cc1)C1CCN(CCCOc2ccc(Cl)cc2)CC1	Not significantly different from negative control group	–	–
COc1cc(C(C)=O)ccc1OCCCN1CCC(Cc2ccccc2)CC1	Not significantly different from negative control group	–	–
OC(c1ccc(F)cc1)(c1ccc(F)cc1)C1CCN(CCCNc2ccccc2)CC1	–	Activity between positive and negative control groups	PFA (Rattus norvegicus [5]): Activity between positive and negative control groups
COc1cc(C(C)=O)ccc1OCCCN1CCC(C(O)(c2ccc(F)cc2)c2ccc(F)cc2)C1 (configuration not stated)	Not significantly different from negative control group	–	–
COc1cc(C(C)=O)ccc1OCCCN1CCC(C(O)(Cc2ccc(F)cc2)c2ccc(F)cc2)CC1 (configuration not stated)	Not significantly different from negative control group	–	–
CC(C)(C)c1ccc(OCCCN2CCC(C(O)(c3ccc(F)cc3)c3ccc(F)cc3)CC2)cc1	Not significantly different from negative control group	–	–
COc1cc(C(C)=O)ccc1OCCCN1CCC(C(O)(c2ccc(C)cc2)c2ccc(C)cc2)CC1	Not significantly different from negative control group	–	–
OC(c1ccc(F)cc1)(c1ccc(F)cc1)C1CCN(CCCC2OCOC2c2ccccc2)CC1 (configuration not stated)	–	Activity between positive and negative control groups	–
COc1cc(C(C)=O)ccc1OCCCN1CCCC(CC(O)(c2ccc(F)cc2)c2ccc(F)cc2)C1 (configuration not stated)	Not significantly different from negative control group	–	–
COc1cc(C(C)=O)ccc1OCCCN1CCN(c2ccccc2)CC1	–	–	PFA (Rattus norvegicus [1]): Activity equal to positive control group
COc1cc(C(C)=O)ccc1OCCCCCCN1CCC(C(O)(c2ccc(F)cc2)c2ccc(F)cc2)CC1	Not significantly different from negative control group	–	–
